Experimental data reported in patent US20040029823A1, “Antisense oligonucleotide compositions and methods for the modulation of JNK proteins” (priority 1997, published 2004).

Assays:
HUVEC = assay: Apoptosis in HUVEC (percent hypodiploid cells, flow cytometry); type: cell-based, human; details: HUVEC
[1] = system: TNFa-induced JNK activity; assay: TNFa-induced JNK activity in HUVEC (GST-c-Jun phosphorylation); type: cell-based, human; details: 100 nM oligonucleotide, compared to a control oligonucleotide
MDA-MB-231 tumors = assay: MDA-MB-231 human breast adenocarcinoma tumors in nude mice; type: in vivo; details: 25 mg/kg intravenous once daily
Description: Approximately 5×10^6 breast adenocarcinoma cells (cell line MDA-MB-231; American Type Culture Collection, Richmond, Va., No. ATCC HTB-26) were implanted subcutaneously in the right inner thigh of nude mice (n=6 for each of three sets of mice). Oligonucleotides ISIS 15346 (JNK1, SEQ ID NO: 16) and 15353 (JNK2, SEQ ID NO: 31) were suspended in saline and administered once daily to two sets of mice on the first day the tumor volume was about […]. A saline-only (0.9% NaCl) solution was given to a third set of animals as a control. Oligonucleotides were given by intravenous injection at a dosage of 25 mg/kg. Tumor size was measured and tumor volume was calculated on days 12, 19, 26 and 33 following tumor cell inoculation.

With “G^ST^SC^SC^SG^SG^SG^SC^SC^SA^SG^SG^SC^SC^SA^SA^SA^SG^ST^SC (antisense GTCCGGGCCAGGCCAAAGTC; DNA, all phosphorothioate, methylation of C not given here) [ISIS 15353, JNK2 gapmer: P═S, 2′-MOE wings; P═S, 2-deoxy core]” the “percent hypodiploid cells (a measure of apoptosis)” value (“percent hypodiploid cells” below) (HUVEC; Oligo + Cyclohexamide) was 27%, the “percent hypodiploid cells” value (HUVEC; Oligo + TNFa (10 ng/ml)) was 32% and the “percent hypodiploid cells” value (HUVEC; Oligo + z-VAD.fmk) was 17%. For the same substance, the “percent hypodiploid cells” value (HUVEC; Oligo alone) was 23%, the “inhibition of TNFa-induced JNK activity” value [1] was ~55% and the “Mean Tumor Volume” value (MDA-MB-231 tumors; Day 12 after tumor cell inoculation) was 0.122 cm^3. For the same substance, the “Mean Tumor Volume” value (MDA-MB-231 tumors; Day 19) was 0.230 cm^3, the “Mean Tumor Volume” value (MDA-MB-231 tumors; Day 26) was 0.358 cm^3 and the “Mean Tumor Volume” value (MDA-MB-231 tumors; Day 33) was 0.762 cm^3.
